ChEMBL document CHEMBL1201862, “PubChem BioAssay data set” (2004)
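Following 48 hours of exposure in 96-well plates, responses at five concentrations were used to interpolate endpoints linearly. Abbreviation: GI50, concentration required for 50% inhibition of growth.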 Activity calls are given as the source filed them. Rule as the data show it: active = GI50 up to about 1.1 µM and inactive = higher.

Assays:
Test in all cases: inhibition of tumour cell growth, NCI panel, 48 h
NCI-H23 = tested on: NCI-H23
MCF7 = tested on: MCF7
K562 = tested on: K562
HCT-116 = tested on: HCT-116
HT-29 = tested on: HT-29
OVCAR-5 = tested on: OVCAR-5
IGROV-1 = tested on: IGROV-1
OVCAR-3 = tested on: OVCAR-3
SF-295 = tested on: SF-295
EKVX = tested on: EKVX
TK-10 = tested on: TK-10
COLO 205 = tested on: COLO 205
UACC-62 = tested on: UACC-62
OVCAR-8 = tested on: OVCAR-8
HOP-92 = tested on: HOP-92
PC-3 = tested on: PC-3
A498 = tested on: A498
HOP-62 = tested on: HOP-62
NCI-H522 = tested on: NCI-H522
SR = tested on: SR

Measured: GI50

C[C@@](Br)(C(=O)O)[C@H](Br)C(=O)O
inactive: NCI-H23 > 100 µM | MCF7 > 100 µM | K562 > 100 µM | HCT-116 > 100 µM | HT-29 > 100 µM | OVCAR-5 > 100 µM | IGROV-1 > 100 µM | OVCAR-3 > 100 µM | SF-295 > 100 µM | EKVX 83.4 µM | TK-10 > 100 µM | COLO 205 > 100 µM | UACC-62 > 100 µM | OVCAR-8 > 100 µM | HOP-92 > 100 µM | PC-3 > 100 µM | A498 > 100 µM | HOP-62 > 100 µM

OCCCC(O)(c1ccccc1)c1ccccc1
inactive: NCI-H23 > 100 µM | MCF7 > 100 µM | K562 > 100 µM | HT-29 > 100 µM | OVCAR-5 > 100 µM | NCI-H522 > 100 µM | IGROV-1 > 100 µM | OVCAR-3 > 100 µM | SF-295 > 100 µM | EKVX > 100 µM | SR > 100 µM | TK-10 > 100 µM | UACC-62 > 100 µM | OVCAR-8 > 100 µM | PC-3 > 100 µM | HOP-62 > 100 µM

CC(=O)CC(=O)c1cc2c(=O)oc(C)cc2oc1=O
inactive: NCI-H23 > 37.5 µM | MCF7 > 37.5 µM | K562 > 37.5 µM | HCT-116 > 37.5 µM | HT-29 > 37.5 µM | OVCAR-5 > 37.5 µM | NCI-H522 > 37.5 µM | IGROV-1 > 37.5 µM | OVCAR-3 > 37.5 µM | SF-295 > 37.5 µM | EKVX > 37.5 µM | SR > 37.5 µM | TK-10 > 37.5 µM | COLO 205 > 37.5 µM | UACC-62 > 37.5 µM | OVCAR-8 > 37.5 µM | PC-3 > 37.5 µM | HOP-62 > 37.5 µM

CCOC(=O)c1c(C)n(-c2ccc(C)cc2)c(=O)c2ccccc2c(=O)c2c(=O)ccc(=O)c1=2
inactive: NCI-H23 15.5 µM | MCF7 18.8 µM | K562 15.2 µM | HCT-116 17.2 µM | HT-29 12.2 µM | OVCAR-5 28.6 µM | NCI-H522 18.3 µM | IGROV-1 37.5 µM | OVCAR-3 16.2 µM | EKVX 21.6 µM | TK-10 15.5 µM | COLO 205 15.2 µM | UACC-62 19.6 µM | OVCAR-8 16.2 µM | HOP-92 16.2 µM | PC-3 17.1 µM | HOP-62 18.8 µM

COc1ccc(/C=C2\C[C@H]3[C@@H]4CCC5=C/C(=N/O)CC[C@]5(C)[C@H]4CC[C@]3(C)\C2=N\O)cc1
inactive: NCI-H23 19.5 µM | MCF7 5.01 µM | K562 6.47 µM | HCT-116 5.21 µM | HT-29 6.85 µM | OVCAR-5 36.3 µM | NCI-H522 14.9 µM | IGROV-1 37.3 µM | OVCAR-3 10.2 µM | SF-295 12.6 µM | EKVX 12.5 µM | SR 3.99 µM | TK-10 37.1 µM | COLO 205 14.5 µM | UACC-62 14.5 µM | OVCAR-8 9.42 µM | HOP-92 17.3 µM | PC-3 8.17 µM | HOP-62 34.4 µM

O=C(c1ccco1)n1c2ccc(Br)cc2c2nc3ccccc3nc21
inactive: NCI-H23 23.7 µM | MCF7 5.09 µM | K562 38.4 µM | HCT-116 46.7 µM | HT-29 81.5 µM | OVCAR-5 > 100 µM | NCI-H522 12.1 µM | IGROV-1 19.4 µM | OVCAR-3 47.5 µM | SF-295 72.8 µM | EKVX 34.5 µM | SR > 100 µM | TK-10 45.8 µM | COLO 205 > 100 µM | UACC-62 31.6 µM | OVCAR-8 35.2 µM | HOP-92 30.5 µM | PC-3 50.4 µM | HOP-62 16.1 µM

O=C1CSC(c2c[nH]c3ccccc23)N1c1ccc(Cl)cc1Cl (configuration not stated)
inactive: NCI-H23 > 100 µM | MCF7 > 100 µM | K562 > 100 µM | HCT-116 > 100 µM | HT-29 > 100 µM | OVCAR-5 > 100 µM | NCI-H522 > 100 µM | IGROV-1 > 100 µM | OVCAR-3 > 100 µM | SF-295 > 100 µM | EKVX > 100 µM | SR > 100 µM | TK-10 > 100 µM | COLO 205 > 100 µM | UACC-62 > 100 µM | OVCAR-8 > 100 µM | HOP-92 > 100 µM | PC-3 > 100 µM | HOP-62 > 100 µM

COc1cc(OCc2nc3ccccc3n3cccc23)cc(OC)c1OC
inactive: NCI-H23 5.6 µM | MCF7 3.61 µM | K562 3.86 µM | HCT-116 17.5 µM | HT-29 28.1 µM | OVCAR-5 > 52 µM | NCI-H522 13.1 µM | IGROV-1 20.3 µM | OVCAR-3 15 µM | SF-295 11.3 µM | EKVX 14.8 µM | TK-10 32.7 µM | COLO 205 16.8 µM | UACC-62 13.8 µM | OVCAR-8 17.1 µM | HOP-92 10 µM | PC-3 30.3 µM | A498 > 87.5 µM | HOP-62 37.2 µM

COC(=O)c1ccc(CN2CCc3c([nH]c4ccccc34)C2CO)o1 (configuration not stated)
inactive: NCI-H23 > 10 µM | MCF7 > 10 µM | K562 > 10 µM | HT-29 > 10 µM | NCI-H522 > 10 µM | IGROV-1 > 10 µM | OVCAR-3 > 10 µM | SF-295 > 10 µM | EKVX > 10 µM | SR > 10 µM | TK-10 > 10 µM | COLO 205 > 10 µM | UACC-62 > 10 µM | OVCAR-8 > 10 µM | HOP-92 > 10 µM | PC-3 > 10 µM | HOP-62 > 10 µM

CC1CCc2sc3nc(S)n(C)c(=O)c3c2C1 (configuration not stated)
inactive: NCI-H23 35.6 µM | MCF7 35.5 µM | K562 42.2 µM | HCT-116 34.5 µM | HT-29 40 µM | OVCAR-5 73.1 µM | NCI-H522 30.1 µM | IGROV-1 37.4 µM | OVCAR-3 22.4 µM | SF-295 31.1 µM | EKVX 19 µM | SR 34 µM | TK-10 63 µM | COLO 205 67.5 µM | UACC-62 33.7 µM | OVCAR-8 39.5 µM | HOP-92 17.7 µM | PC-3 25.5 µM | HOP-62 39.7 µM

COC(=O)C1=C(\c2ccccc2)c2ccccc2C(=O)N(C2CCCCC2)/C=C\1
inactive: NCI-H23 17.1 µM | MCF7 19.8 µM | K562 4.59 µM | HCT-116 19.4 µM | HT-29 21.9 µM | OVCAR-5 72.9 µM | NCI-H522 36.4 µM | IGROV-1 25.8 µM | OVCAR-3 21.7 µM | SF-295 28 µM | EKVX 52.6 µM | TK-10 41.3 µM | COLO 205 14.5 µM | OVCAR-8 38.9 µM | HOP-92 14.9 µM | PC-3 10.5 µM | A498 30.1 µM | HOP-62 21.3 µM

FC(F)(F)c1ccc(Cc2nc3cc4ccccc4cc3[nH]2)cc1
inactive: NCI-H23 > 100 µM | MCF7 92.3 µM | K562 32.1 µM | HCT-116 > 100 µM | HT-29 91.8 µM | OVCAR-5 > 100 µM | NCI-H522 26.7 µM | IGROV-1 16 µM | OVCAR-3 57.4 µM | SF-295 > 100 µM | EKVX > 100 µM | TK-10 > 100 µM | COLO 205 > 100 µM | UACC-62 > 100 µM | OVCAR-8 > 100 µM | HOP-92 2.11 µM | PC-3 > 100 µM | A498 > 100 µM | HOP-62 > 100 µM

O=[N+]([O-])c1ccccc1S(=O)(=O)c1cc(O)cc2c1NCCC2
active: HOP-92 0.612 µM
inactive: NCI-H23 19.9 µM | MCF7 7.45 µM | K562 2.68 µM | HCT-116 5.78 µM | HT-29 13.3 µM | OVCAR-5 23 µM | NCI-H522 7.5 µM | IGROV-1 17.1 µM | OVCAR-3 7.55 µM | SF-295 25.3 µM | EKVX 16.7 µM | TK-10 21.4 µM | COLO 205 17.1 µM | UACC-62 15.2 µM | OVCAR-8 11.8 µM | PC-3 14.7 µM | A498 13.9 µM | HOP-62 21 µM

CC12c3c4cc(Br)cc3Oc3cc(Br)cc(c31)Oc1cc(Br)cc(c12)O4
inactive: NCI-H23 57.1 µM | MCF7 43.4 µM | K562 44.4 µM | HCT-116 17.7 µM | HT-29 76.9 µM | OVCAR-5 55.5 µM | IGROV-1 22.8 µM | OVCAR-3 12.4 µM | SF-295 > 100 µM | EKVX 19.7 µM | SR 15.1 µM | TK-10 41.1 µM | COLO 205 25.6 µM | UACC-62 27.7 µM | OVCAR-8 55 µM | PC-3 21 µM | HOP-62 60.4 µM

COc1ccc(COCC[C@H](C)OC2OC(CO[Si](C)(C)C(C)(C)C)C(OC(=O)CCCN=[N+]=[N-])C(OC(=O)CCCN=[N+]=[N-])C2OC(=O)CCCN=[N+]=[N-])cc1 (some centres not stated)
inactive: NCI-H23 31.8 µM | MCF7 25.9 µM | HCT-116 19.5 µM | HT-29 22.3 µM | OVCAR-5 89.1 µM | NCI-H522 18.7 µM | IGROV-1 51.5 µM | OVCAR-3 61.8 µM | SF-295 89.3 µM | EKVX 33.2 µM | TK-10 > 100 µM | COLO 205 25.6 µM | UACC-62 58.9 µM | OVCAR-8 19.7 µM | HOP-92 > 100 µM | PC-3 28.6 µM | A498 > 100 µM | HOP-62 97.5 µM
